Data published in PubChem BioAssay (NCI).
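Cells were grown in 96-well plates and exposed to each compound for 48 hours at five concentrations; endpoints were interpolated linearly between bracketing concentrations, or set to the highest concentration if not reached. The concentration for 50% growth inhibition is given as GI50. TGI is the concentration that stops growth completely.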

How the values were obtained:
Assay in all cases: DTP human tumour cell line panel, 48 h
RPMI-8226 leukemia = system: RPMI-8226 leukemia
EKVX NSCLC = system: EKVX NSCLC
A498 renal = system: A498 renal
LOX IMVI melanoma = system: LOX IMVI melanoma
HCT-116 colon = system: HCT-116 colon
MDA-MB-468 breast = system: MDA-MB-468 breast
OVCAR-8 ovarian = system: OVCAR-8 ovarian
KM12 colon = system: KM12 colon
SK-OV-3 ovarian = system: SK-OV-3 ovarian
U251 CNS = system: U251 CNS
HOP-92 NSCLC = system: HOP-92 NSCLC
HOP-62 NSCLC = system: HOP-62 NSCLC
SF-268 CNS = system: SF-268 CNS
UACC-62 melanoma = system: UACC-62 melanoma
786-0 renal = system: 786-0 renal
NCI-H522 lung = system: NCI-H522 lung
K-562 leukemia = system: K-562 leukemia
M14 melanoma = system: M14 melanoma
SF-295 CNS = system: SF-295 CNS
BT-549 breast = system: BT-549 breast
SR leukemia = system: SR leukemia
ACHN renal = system: ACHN renal
RXF 393 renal = system: RXF 393 renal
NCI-H460 lung = system: NCI-H460 lung
OVCAR-3 ovarian = system: OVCAR-3 ovarian
IGROV1 ovarian = system: IGROV1 ovarian
SN12C renal = system: SN12C renal
NCI-H226 lung = system: NCI-H226 lung
A549 NSCLC = system: A549 NSCLC
SF-539 CNS = system: SF-539 CNS
SK-MEL-2 melanoma = system: SK-MEL-2 melanoma
DU-145 prostate = system: DU-145 prostate
UO-31 renal = system: UO-31 renal
HCT-15 colon = system: HCT-15 colon
MDA-MB-231 breast = system: MDA-MB-231 breast
TK-10 renal = system: TK-10 renal
SNB-19 CNS = system: SNB-19 CNS
T-47D breast = system: T-47D breast
OVCAR-5 ovarian = system: OVCAR-5 ovarian
CCRF-CEM leukemia = system: CCRF-CEM leukemia
HCC-2998 colon = system: HCC-2998 colon
COLO 205 colon = system: COLO 205 colon
MOLT-4 leukemia = system: MOLT-4 leukemia
OVCAR-4 ovarian = system: OVCAR-4 ovarian
SK-MEL-28 melanoma = system: SK-MEL-28 melanoma
HL-60(TB) leukemia = system: HL-60(TB) leukemia
MDA-MB-435 = system: MDA-MB-435
HT29 colon = system: HT29 colon
HS 578T breast = system: HS 578T breast
PC-3 prostate = system: PC-3 prostate
CAKI-1 renal = system: CAKI-1 renal
MCF7 breast = system: MCF7 breast
SK-MEL-5 melanoma = system: SK-MEL-5 melanoma
UACC-257 melanoma = system: UACC-257 melanoma
SW-620 colon = system: SW-620 colon
NCI-H23 lung = system: NCI-H23 lung
MALME-3M melanoma = system: MALME-3M melanoma

With Cn1cc(-c2cc(N)n3nc(-c4c[nH]c5ccc(F)cc45)cc3n2)c2cc(Br)cnc21 the GI50 (RPMI-8226 leukemia) was 5.67 µM, the TGI (RPMI-8226 leukemia) was 48.5 µM and the GI50 (EKVX NSCLC) was over 100 µM. It also gave a TGI (EKVX NSCLC) of over 100 µM, a GI50 (A498 renal) of over 100 µM and a TGI (A498 renal) of over 100 µM. It also gave a GI50 (LOX IMVI melanoma) of 1.96 µM, a TGI (LOX IMVI melanoma) of 3.69 µM and a GI50 (HCT-116 colon) of 32.2 µM. It also gave a TGI (HCT-116 colon) of over 100 µM, a GI50 (MDA-MB-468 breast) of 4.64 µM and a TGI (MDA-MB-468 breast) of 18.5 µM. For the same compound, the GI50 (OVCAR-8 ovarian) was 16.8 µM, the TGI (OVCAR-8 ovarian) was 69.6 µM and the GI50 (KM12 colon) was 4 µM. For the same compound, the TGI (KM12 colon) was over 100 µM, the GI50 (SK-OV-3 ovarian) was over 100 µM and the TGI (SK-OV-3 ovarian) was over 100 µM. It also gave a GI50 (U251 CNS) of 5.72 µM, a TGI (U251 CNS) of 28.9 µM and a GI50 (HOP-92 NSCLC) of 20.4 µM. The TGI (HOP-92 NSCLC) was over 100 µM, the GI50 (HOP-62 NSCLC) was 62.2 µM and the TGI (HOP-62 NSCLC) was over 100 µM. For the same compound, the GI50 (SF-268 CNS) was over 100 µM, the TGI (SF-268 CNS) was over 100 µM and the GI50 (UACC-62 melanoma) was 17.7 µM. The TGI (UACC-62 melanoma) was 72.3 µM, the GI50 (786-0 renal) was 8.47 µM and the TGI (786-0 renal) was 22.2 µM. For the same compound, the GI50 (NCI-H522 lung) was 5.77 µM, the TGI (NCI-H522 lung) was 40.4 µM and the GI50 (K-562 leukemia) was 4.09 µM. It also gave a TGI (K-562 leukemia) of 50.2 µM, a GI50 (M14 melanoma) of 12.3 µM and a TGI (M14 melanoma) of 27.4 µM. For the same compound, the GI50 (SF-295 CNS) was 9.9 µM, the TGI (SF-295 CNS) was 39.1 µM and the GI50 (BT-549 breast) was over 100 µM. For the same compound, the TGI (BT-549 breast) was over 100 µM, the GI50 (SR leukemia) was 4.36 µM and the TGI (SR leukemia) was over 100 µM. For the same compound, the GI50 (ACHN renal) was 6.52 µM, the TGI (ACHN renal) was 43.4 µM and the GI50 (RXF 393 renal) was 2.63 µM. For the same compound, the TGI (RXF 393 renal) was 8.47 µM, the GI50 (NCI-H460 lung) was 6.63 µM and the TGI (NCI-H460 lung) was 24.8 µM. The GI50 (OVCAR-3 ovarian) was over 100 µM, the TGI (OVCAR-3 ovarian) was over 100 µM and the GI50 (IGROV1 ovarian) was 14.3 µM. For the same compound, the TGI (IGROV1 ovarian) was over 100 µM, the GI50 (SN12C renal) was over 100 µM and the TGI (SN12C renal) was over 100 µM. It also gave a GI50 (NCI-H226 lung) of 24.3 µM, a TGI (NCI-H226 lung) of over 100 µM and a GI50 (A549 NSCLC) of 16.4 µM. It also gave a TGI (A549 NSCLC) of over 100 µM, a GI50 (SF-539 CNS) of 13.7 µM and a TGI (SF-539 CNS) of 41.2 µM. For the same compound, the GI50 (SK-MEL-2 melanoma) was 26.4 µM, the TGI (SK-MEL-2 melanoma) was over 100 µM and the GI50 (DU-145 prostate) was 80.8 µM. The TGI (DU-145 prostate) was over 100 µM, the GI50 (UO-31 renal) was 12.8 µM and the TGI (UO-31 renal) was 64.8 µM. It also gave a GI50 (HCT-15 colon) of 2.55 µM, a TGI (HCT-15 colon) of 10.7 µM and a GI50 (MDA-MB-231 breast) of 5.28 µM. For the same compound, the TGI (MDA-MB-231 breast) was 24.5 µM, the GI50 (TK-10 renal) was 26.5 µM and the TGI (TK-10 renal) was over 100 µM. It also gave a GI50 (SNB-19 CNS) of 37.7 µM, a TGI (SNB-19 CNS) of over 100 µM and a GI50 (T-47D breast) of 34 µM. It also gave a TGI (T-47D breast) of over 100 µM, a GI50 (OVCAR-5 ovarian) of 21.9 µM and a TGI (OVCAR-5 ovarian) of over 100 µM. The GI50 (CCRF-CEM leukemia) was 3.45 µM, the TGI (CCRF-CEM leukemia) was 20.2 µM and the GI50 (HCC-2998 colon) was 4.2 µM. It also gave a TGI (HCC-2998 colon) of 20.3 µM, a GI50 (COLO 205 colon) of 55.5 µM and a TGI (COLO 205 colon) of over 100 µM. It also gave a GI50 (MOLT-4 leukemia) of 2.42 µM, a TGI (MOLT-4 leukemia) of 21.6 µM and a GI50 (OVCAR-4 ovarian) of 22.5 µM. It also gave a TGI (OVCAR-4 ovarian) of over 100 µM, a GI50 (SK-MEL-28 melanoma) of 14.5 µM and a TGI (SK-MEL-28 melanoma) of 30.2 µM. The GI50 (HL-60(TB) leukemia) was 9.35 µM, the TGI (HL-60(TB) leukemia) was over 100 µM and the GI50 (MDA-MB-435) was 21.6 µM. It also gave a TGI (MDA-MB-435) of over 100 µM, a GI50 (HT29 colon) of 5.04 µM and a TGI (HT29 colon) of 24.4 µM. The GI50 (HS 578T breast) was over 100 µM, the TGI (HS 578T breast) was over 100 µM and the GI50 (PC-3 prostate) was 11.4 µM. It also gave a TGI (PC-3 prostate) of over 100 µM, a GI50 (CAKI-1 renal) of 6.43 µM and a TGI (CAKI-1 renal) of over 100 µM. The GI50 (MCF7 breast) was 4.11 µM, the TGI (MCF7 breast) was 22.7 µM and the GI50 (SK-MEL-5 melanoma) was 31.3 µM. The TGI (SK-MEL-5 melanoma) was over 100 µM, the GI50 (UACC-257 melanoma) was 23.3 µM and the TGI (UACC-257 melanoma) was over 100 µM. For the same compound, the GI50 (SW-620 colon) was 6.93 µM, the TGI (SW-620 colon) was 21.9 µM and the GI50 (NCI-H23 lung) was 75.3 µM. It also gave a TGI (NCI-H23 lung) of over 100 µM, a GI50 (MALME-3M melanoma) of 10.4 µM and a TGI (MALME-3M melanoma) of 29.7 µM.
